Test results from patent US20060165814A1, “Amines, combination of amines and vanadium and amine vanadium salts for the treatment or prevention of dyslipidemia” (Genmedica Therapeutics SL, priority 2004, published 2006).

Assays:
rat adipocytes = conditions: amine in combination with low concentrations of vanadate; cited from earlier work
[1] = test system: streptozotocin-induced diabetic rats; experiment: Subcutaneous chronic administration, plasma cholesterol in diabetic rats; assay type: in vivo, rat; conditions: subcutaneously infused for 28 days; B6V10 1.25 or 2.5 μmol/kg/day, V10 1.25 μmol/kg/day; streptozotocin (100 mg/kg) diabetic rats
Text: FIG. 3A through 3D show plasma concentrations of total cholesterol (FIG. 3A), nonesterified cholesterol (FIG. 3B), esterified cholesterol (FIG. 3C) and HDL-cholesterol (FIG. 3D) measured in nondiabetic rats (C), streptozotocin-induced diabetic rats (Diab) or diabetic rats treated for 28 days with subcutaneously infused decanadate (V10, 1.25 μmol/kg/day) or hexaquis(benzylammonium) decavanadate (B6V10) at two different doses (1.25 μmol/kg/day or 2.5 μmol/kg/day). * indicates the existance of statistically significant differences from the Diab group at p<0.05.
Subcutaneous administration of hexaquis(benzylammonium) decavanadate was performed to determine the effect on altered plasma concentrations of cholesterol associated to diabetes. Diabetes was induced in rats by intravenous administration of a large dose of streptozotocin (100 mg/kg). Experimentally-induced Diabetes was associated with substantial increases in total plasma cholesterol and nonesterified cholesterol and a reduction in esterified cholesterol concentrations compared to nondiabetic rats (FIG. 3A). HDL-cholesterol concentrations were unaltered by diabetes […]. Under these conditions, subcutaneous treatment with different doses of hexaquis(benzylammonium) decavanadate reduced plasma concentrations of total cholesterol and nonesterified cholesterol and increased esterified cholesterol concentrations so no differences between control and hexaquis(benzylammonium) decavanadate-treated rats were detectable (FIG. 3C).

[2] = test system: streptozotocin-induced diabetic rats; experiment: Subcutaneous chronic administration, plasma triglyceride and free fatty acids in diabetic rats; assay type: in vivo, rat; conditions: subcutaneously infused for 28 days; B6V10 1.25 or 2.5 μmol/kg/day, V10 1.25 μmol/kg/day; streptozotocin (100 mg/kg) diabetic rats
Text: FIG. 2A though 2D are bar graphs showing plasma concentrations of insulin (FIG. 2A), glucose (FIG. 2B), free fatty acids (FIG. 2C) and triglycerides (FIG. 2D) measured in nondiabetic rats (C), streptozotocin-induced diabetic rats (Diab) or diabetic rats treated for 28 days with subcutaneously infused decanadate (V10, 1.25 μmol/kg/day) or hexaquis(benzylammonium) decavanadate (B6V10) at two different doses (1.25 μmol/kg/day or 2.5 μmol/kg/day). * indicates the existance of statistically significant differences from the Diab group at p<0.05.
Subcutaneous administration of hexaquis(benzylammonium) decavanadate was tested to determine whether it ameliorated the dyslipidemia associated with diabetes. Diabetes was induced in rats by intravenous administration of a large dose of streptozotocin (100 mg/kg), causing a complete disappearance of plasma insulin and very high concentrations of plasma glucose (FIGS. 2A and 2B). Induction of diabetes was also associated with substantial increases in plasma free fatty acid and triglyceride concentrations compared to nondiabetic rats (FIGS. 2C and 2D). Under these conditions, subcutaneous treatment with different doses of hexaquis(benzylammonium) decavanadate normalized plasma concentrations of free fatty acids and triglycerides so that no differences between control and hexaquis(benzylammonium) decavanadate-treated rats were detectable (FIGS. 2C and 2D).

[3] = test system: streptozotocin-induced diabetic rats; experiment: Oral chronic administration, plasma cholesterol in diabetic rats; assay type: in vivo, rat; conditions: single daily oral dose for 17 days, 5 μmol/kg/day day 0-7 and 10 μmol/kg/day day 8-17
Text: FIG. 1 is a bar graph of the plasma concentration of cholesterol (Ch) (expressed in mmol/L) measured in nondiabetic rats (C), streptozotocin-induced diabetic rats (D) or diabetic rats treated for 17 days with a single daily oral dose of hexaquis(benzylammonium) decavanadate (5 μmol/kg/day between day 0 and day 7 and 10 μmol/kg/day from day 8 to day 17 of treatment) (BV). Cholesterol concentrations in the D group were statistically significant from the C group at p<0.05.
Oral administration of hexaquis(benzylammonium) decavanadate was tested to determine whether it ameliorated dyslipidemia associated to diabetes. Diabetes was induced in rats by intravenous administration of streptozotocin, causing a substantial increase in plasma cholesterol concentrations compared to nondiabetic rats (FIG. 1).

Compound	glucose transport (rat adipocytes)	plasma concentration of esterified cholesterol [1]	plasma concentration of nonesterified cholesterol [1]	plasma concentration of total cholesterol [1]	plasma concentration of free fatty acids [2]	plasma concentration of triglycerides [2]	plasma cholesterol levels [3]
NCc1ccccc1 [benzylamine]	stimulates glucose transport	–	–	–	–	–	–
[O]=[V]([O-])([O-])[O][V]1(=[O])[O][V]2(=[O])[O][V](=[O])([O][V](=[O])([O-])[O-])[O][V](=[O])([O]2)[O][V]2(=[O])[O][V](=[O])([O][V](=[O])([O-])[O-])[O][V](=[O])([O]1)[O]2 (stereo not shown) [decavanadate, reference compound]	–	not significantly different	not significantly different	significant reduction	did not alter	did not alter	–
NCCc1ccc(O)cc1 [tyramine]	stimulates glucose transport	–	–	–	–	–	–
hexaquis(benzylammonium) decavanadate	–	increased	reduced	reduced	normalized	normalized	substantially reduced
